Here are results for one compound from article PMC8290497, “Taxifolin, an Inhibitor of Sortase A, Interferes With the Adhesion of Methicillin-Resistant Staphylococcal aureus” (Frontiers in Microbiology, 2021).

The structures appear in SMILES notation. Values after ≈ are worked out from the molar mass of the structure shown.

Data set [1] concerns internalization of S. aureus into A549 cells. Put plainly: Invasion assay of S. aureus into A549 cells. Format: cell-based, Staphylococcus aureus. Conditions: 200 μM Tax; P < 0.001. The procedure:
A549 human lung carcinoma cells were seeded at a density of 2.5 × 10^5 per well in 24-well plates and placed in an incubator at 37°C in an atmosphere containing 5% CO2 for 20 h. Cultures of S. aureus were mixed with different concentrations of Tax then cultured at 37°C until an OD600 of 1.0 was achieved. The A549 cells were resuspended in medium and aliquots of bacterial suspension were added to each well to a total concentration of 2 × 10^7°CFU/mL. After incubation for 2 h, the invasion assay was terminated by incubation with 300 μg/mL gentamicin for 30 min. The cells were then lysed after washing and coated on a BHI agar plate. After incubation at 37°C for 12 h, the number of CFUs were counted manually.
(§1) FIGURE 3 Effect of SrtA inhibitor on virulence-related phenotypes in S. aureus Newman strain. (A) Impact of Tax on the ability of S. aureus to adhere to fibrinogen. (B) Biofilm formation of S. aureus in the presence of different concentrations of Tax. (C) Mature biofilms of S. aureus in the presence of different concentrations of Tax. The ΔsrtA group represented the positive control. (D) Tax affects internalization of S. aureus into A549 cells. […] The number of viable S. aureus in the cells was quantified by serial dilution on TSA agar plates. […] Error bars represent means ± SD of three replicates. *P < 0.05, **P < 0.01, ***P < 0.001 calculated with a two-tailed Student’s t-test.

The test system of data set [2] is adhesion of S. aureus USA300 to fibrinogen. Put plainly: Fibrinogen binding assay (crystal violet). The class given is cell-based. The following applies: Staphylococcus aureus, USA300, read-out: inhibition rate of adhesion of bacteria to fibrinogen.
Data set [3] has as its system HEK293 cells. Put plainly: CCK-8 cytotoxicity assay, HEK293. Format: cell-based. The procedure:
(§2) Cytotoxicity was determined using a cell counting kit-8 assay (CCK-8, US EVERBRIGHT, Suzhou, China), as described previously ([Xiao et al., 2018]). HEK293 or HepG2 cells were seeded in 96-well plates (Corning, United States) at a density of 5 × 10^4 cells/well, then incubated at 37°C in an atmosphere containing 5% CO2 for 24 h. The culture medium was then exchanged with fresh medium containing different concentrations of Tax (0–200 μM) or vehicle and incubated for an additional 24 h. CCK-8 solution (10 μL) was carefully added then incubated for 4 h in an incubator at 37°C. The OD value at 450 nm was measured to calculate cell viability.
(§3) FIGURE 2 Growth curve and cytotoxicity. (A) Growth curves of S. aureus USA300 and the ΔsrtA group with different concentrations of Tax. (B) Growth rate of S. aureus USA300 and S. aureus treated with Tax (25 μM). (C) Percent cell viability of HEK293 (purple) and HepG2 (blue) cells were measured using a CCK-8 assay after incubation with Tax for 24 h.
For orientation: Tetrazolium dyes change colour on reduction, which living cells bring about.

Data set [4] concerns BALB/c mice. The following applies: mouse, in vivo, ip, 200 mg/kg.
Experimental: An injection of PBS represented the control group. Symptoms of poisoning or abnormal behavior were monitored, and survival of the mice in each group was recorded after 72 h.
Data set [5] has as its system S. aureus USA300. In words: Growth curve and growth rate. The class given is cell-based, Staphylococcus aureus. The procedure:
(§4) A broth microdilution assay was performed to determine the minimum inhibitory concentration (MIC) of Tax for S. aureus USA300, as described elsewhere ([Sader et al., 2013]; [Delgado-Valverde et al., 2017]). A growth curve was further evaluated by adding various concentrations of Tax (0–200 μM) to a bacterial culture, then incubating until an OD600 of 0.3 had been reached. S. aureus USA300 and ΔsrtA were used as controls. The OD600 value was recorded for each sample at 1 h intervals for a total of 24 h. The growth rate between S. aureus treated with Tax and S. aureus USA300 was also calculated at each time point.
as §3

Data set [6] deals with SrtA expression in S. aureus. In words: Western blot analysis of SrtA expression. Format: cell-based, Staphylococcus aureus. Conditions: 25–200 μM Tax, compared with the untreated group. The procedure:
To evaluate the effect of Tax on SrtA expression, Tax (25–200 μM) was added to different bacterial cultures and incubated overnight at 37°C. Equal quantities of total protein from the bacterial lysates were separated by 12% SDS-PAGE then transferred to a polyvinylidene fluoride (PVDF) membrane using a transblot semidry system. Non-specific binding to the PVDF membrane was prevented by incubating in 5% bovine serum albumin (BSA) overnight at 4°C. The membranes were washed three times with PBST, agitating each time for 5 min, then incubated with rabbit polyclonal antibody (created in the laboratory) against SrtA. Following a further washing in PBST three times, the membranes were incubated with HRP-labeled goat anti-rabbit IgG (Bioworld, China) diluted 1:10,000 in antibody diluent (PBST + 1% BSA) at 37°C for 1 h. ΔsrtA or S. aureus USA300 without Tax was considered the control group. The cytoplasmic protein ClpP was analyzed as an internal control. Blots were visualized using an enhanced chemiluminescence (ECL) detection system (GE Healthcare, United Kingdom), while bands were quantified using ImageQuant TL software (GE Healthcare).
FIGURE 4 Expression of SrtA in the presence of Tax and the interaction of different concentrations of Tax with SrtA. […] Error bars represent means ± SD of three replicates. ***P < 0.001 calculated with a two-tailed Student’s t-test.
(In general: Immunoblotting shows a protein as a band on a membrane.)

Data set [7] has as its system S. aureus biofilm formation. In words: Biofilm formation assay (crystal violet). The class given is cell-based, Staphylococcus aureus. Conditions: coculture with 200 μM Tax, 24 h. The procedure: Bacterial cultures grown overnight were diluted 1:100 in BHI medium supplemented with 3% NaCl and 0.5% glucose. A 200 μL aliquot of each diluted culture was added to separate wells of a 96-well plate, to which different concentrations of Tax (25–200 μM) had been added, then incubated at 37°C for 24 h. Subsequently, the culture medium was replaced with crystal violet to stain the biofilm for 15 min. The wells were then washed thoroughly with sterile deionized PBS three times. The crystal violet stain in each well was decolorized with 200 μL absolute ethanol and then the OD595 value was recorded using a microplate reader.
as §1

Data set [8] deals with HepG2 cells. In words: CCK-8 cytotoxicity assay, HepG2. The class given is cell-based. The procedure:
as §2, §3

Data set [9] concerns S. aureus USA300. In words: Broth microdilution susceptibility assay (MIC). The class given is cell-based. The following applies: Staphylococcus aureus, S. aureus USA 300. The procedure:
as §4
(In general: Dilution methods test growth across graded concentrations, often in twofold steps.)

The term inhibition denotes the change of the read-out against control, counted positive when it falls. In general, MIC refers to the lowest concentration found to suppress growth. Take `O=C1c2c(O)cc(O)cc2OC(c2ccc(O)c(O)c2)C1O` (stereo not drawn) [Tax, taxifolin]: in [1], the “number of bacteria entering A549 cells” value is reported as “reduced significantly”. In addition, the inhibition at 200 µM in data set [2] was 35.1 ± 0.49%. In [3] (200 μM), the “toxicity toward mammalian cells (HEK293)” value is on record as “did not display toxicity”. The “cytotoxicity toward HEK293 cells” value in data set [3] (at 24.53 ± 0.42 μM, 24 h) was “no significant cytotoxicity”. Besides, the “acute toxicity, signs observed” value in [4] is listed as “no signs of malaise, or tardy or inanimate behavior”. The “toxicity toward S. aureus” value in [5] (200 μM) is reported as “did not display toxicity”. In data set [5] (at a concentration of IC50 (25 μM), P > 0.05), the “effect on the growth of S. aureus” value was “no significant effect”. Moreover, the “effect on SrtA expression” value in data set [6] was “no apparent effect”. Further, the “biofilm biomass, % of the mass of the untreated control” value in data set [7] worked out at 29.91 ± 0.51%. In addition, the “toxicity toward mammalian cells (HepG2)” value in data set [8] (200 μM) is “did not display toxicity”. The “cytotoxicity toward HepG2 cells” value in data set [8] (at 24.53 ± 0.42 μM, 24 h) is “no significant cytotoxicity”. Also, the minimum inhibitory concentration (MIC) in [9] turned out to be 512 µg/mL (≈ 1680 µM).
